Measurements reported in the supplement of paper PMC10307832.

Experiments:
Assay in all cases: relative viability (nuclei count vs DMSO), 5 days (fraction); higher = more cells survive
[1] = compound: CCC1=CN=CN=C1N2CCN(CC2)CC3=NC4=C(N3)C=C(C=C4)C(F)(F)F + CC1(C)CCC(c2ccc(Cl)cc2)=C(CN2CCN(c3ccc(C(=O)NS(=O)(=O)c4ccc(N[C@H](CCN5CCOCC5)CSc5ccccc5)c(S(=O)(=O)C(F)(F)F)c4)cc3)CC2)C1 [Navitoclax] (partner 0.5 µM)
In short: (§1)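 Each reported value is a median over duplicate plates. It expresses relative viability: treated-well nuclei count divided by vehicle-well nuclei count. Lung cancer cell lines in 1536-well plates were dosed by pin tool a day after seeding, alone with one drug or with a fixed anchor-drug dose plus five library-drug doses (not always all listed) in √10 steps, and nuclei were counted after 5 days.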

[2] = compound: CCC1=CN=CN=C1N2CCN(CC2)CC3=NC4=C(N3)C=C(C=C4)C(F)(F)F + N=C(N)NC(=N)NCCc1ccccc1 [Phenformin] (partner 250 µM)
In short: as §1

[3] = compound: CCn1c(-c2nonc2N)nc2cnc(Oc3cccc(NC(=O)c4ccc(OCCN5CCOCC5)cc4)c3)cc21 + CC(=O)Nc1cccc(-n2c(=O)n(C3CC3)c(=O)c3c(Nc4ccc(I)cc4F)n(C)c(=O)c(C)c32)c1 [Trametinib] (partner 0.02 µM)
In short: as §1

[4] = compound: CCn1c(-c2nonc2N)nc2cnc(Oc3cccc(NC(=O)c4ccc(OCCN5CCOCC5)cc4)c3)cc21 + CCNC(=O)c1noc(-c2cc(C(C)C)c(O)cc2O)c1-c1ccc(CN2CCOCC2)cc1 [Luminespib] (partner 0.01 µM)
In short: as §1

Cell Line | relative viability ([1]; first compound 0.04 µM) | relative viability ([1]; first compound 0.1265 µM) | relative viability ([1]; first compound 0.4 µM) | relative viability ([1]; first compound 1.265 µM) | relative viability ([1]; first compound 4 µM) | relative viability ([2]; first compound 0.04 µM) | relative viability ([2]; first compound 0.1265 µM) | relative viability ([2]; first compound 0.4 µM) | relative viability ([2]; first compound 1.265 µM) | relative viability ([2]; first compound 4 µM) | relative viability ([3]; first compound 0.04 µM) | relative viability ([3]; first compound 0.1265 µM) | relative viability ([3]; first compound 0.4 µM) | relative viability ([3]; first compound 1.265 µM) | relative viability ([3]; first compound 4 µM) | relative viability ([4]; first compound 0.04 µM) | relative viability ([4]; first compound 0.1265 µM) | relative viability ([4]; first compound 0.4 µM) | relative viability ([4]; first compound 1.265 µM) | relative viability ([4]; first compound 4 µM)
NCI-H2170 | 0.561 | 0.69 | 0.534 | 0.608 | 0.608 | 0.401 | 0.359 | 0.351 | 0.382 | 0.361 | 0.885 | 0.941 | 0.96 | 0.926 | 0.974 | 0.344 | 0.453 | 0.926 | 0.478 | 0.474
HCC-366 | 1.07 | 1.04 | 1 | – | 1.05 | 0.539 | 0.64 | 0.57 | 0.432 | 0.536 | 0.335 | 0.334 | 0.322 | 0.0755 | 0.0555 | – | – | – | – | –
NCI-H2405 | 0.86 | 0.937 | 0.834 | – | 0.997 | 0.418 | 0.401 | 0.419 | – | 0.492 | 0.537 | 0.385 | 0.311 | 0.253 | 0.26 | 0.735 | 0.49 | 0.219 | 0.217 | 0.214
COR-L 105 | 0.714 | 0.717 | 0.695 | 0.868 | 0.651 | 0.629 | 0.403 | 0.536 | 0.401 | 0.502 | 0.343 | 0.42 | 0.365 | 0.319 | 0.376 | 0.657 | 0.282 | 0.592 | 0.445 | 0.247
201T | 1.23 | 1.19 | 1.16 | 1.17 | 1.23 | 0.517 | 0.455 | 0.474 | 0.431 | 0.442 | 0.719 | 0.706 | 0.749 | 0.697 | 0.698 | 1.1 | 1.02 | 1.05 | 1.06 | 1.07
NCI-H2228 | 0.996 | 0.847 | 0.979 | 0.888 | 0.747 | 0.313 | 0.341 | 0.286 | 0.312 | 0.399 | 0.558 | 0.495 | 0.345 | 0.349 | 0.362 | 0.118 | 0.109 | 0.133 | 0.162 | 0.124
LC-2-ad | 0.459 | 0.603 | 0.522 | 0.324 | 0.351 | 0.52 | 0.547 | 0.604 | 0.495 | 0.679 | 0.991 | 0.952 | 0.983 | 0.712 | 0.623 | 0.937 | 0.801 | 0.715 | 0.568 | 0.752
NCI-H2085 | 1.11 | 1.02 | 1.21 | 1.18 | 0.911 | 0.724 | 0.78 | 0.663 | 0.522 | 0.735 | 0.634 | 0.57 | 0.521 | 0.574 | 0.535 | 0.535 | 0.395 | 0.373 | 0.365 | 0.377
NCI-H358 | – | – | – | – | – | 0.345 | 0.289 | 0.372 | 0.317 | 0.349 | 0.14 | 0.161 | 0.115 | 0.129 | 0.113 | 0.667 | 0.302 | – | 0.535 | 0.198
H3255 | 0.489 | 0.469 | 0.507 | 0.49 | 0.529 | 0.398 | 0.42 | 0.347 | 0.352 | 0.392 | 0.671 | 0.676 | 0.577 | 0.442 | 0.579 | 1.02 | 0.819 | 0.735 | 0.571 | 0.599
NCI-H23 | 0.845 | 0.903 | 0.783 | 0.749 | 1.04 | 0.703 | 0.742 | 0.768 | 0.73 | 0.792 | 0.413 | 0.405 | 0.407 | 0.281 | 0.305 | 0.225 | 0.242 | 0.217 | 0.21 | 0.215
CAL-12T | 1.26 | 1.28 | 1.21 | 1.23 | 1.17 | 0.551 | 0.616 | 0.626 | 0.548 | 0.643 | 0.354 | 0.363 | 0.372 | 0.346 | 0.345 | 0.687 | 0.444 | 0.287 | 0.379 | 0.286
A-427 | 0.873 | 0.9 | 0.915 | 0.872 | 0.826 | 0.3 | 0.292 | 0.225 | 0.234 | 0.224 | 0.879 | 0.839 | 0.727 | 0.381 | 0.373 | 1.14 | 0.974 | 0.627 | 0.416 | 0.524
HARA | 1.18 | 1.13 | 1.15 | 1.11 | 1.19 | 0.464 | 0.368 | 0.305 | – | 0.472 | 0.494 | 0.874 | 0.687 | 0.333 | 0.254 | 0.839 | 1.18 | 0.682 | 0.801 | 0.678
NCI-H1793 | 0.381 | 0.447 | 0.363 | – | 0.435 | 0.359 | 0.354 | 0.292 | – | 0.253 | 0.356 | 0.476 | 0.425 | 0.401 | 0.327 | 0.217 | 0.22 | 0.159 | 0.18 | 0.237
NCI-H1623 | – | – | – | – | – | 0.58 | 0.543 | 0.604 | 0.525 | 0.62 | – | – | – | – | – | 0.527 | 0.555 | 0.509 | 0.49 | 0.706
NCI-H2009 | 1.19 | 1.16 | 1.09 | 1.1 | 1.09 | 0.483 | 0.498 | 0.45 | 0.419 | 0.374 | 0.199 | 0.192 | 0.161 | 0.16 | 0.142 | 1 | 0.804 | 0.822 | 0.599 | 0.394
